The text below walks through data of patent US11001838B2, “Platform for screening phosphomevalonate decarboxylase” (The Regents of the University of California, priority 2017, dated 2021).

Each structure is given as a SMILES string. Positions count from the first letter of the chain named.

Assay [1] has as its target T1, Saccharomyces cerevisiae diphosphomevalonate decarboxylase (PMDsc, SEQ ID NO: 1) variant R74G (Saccharomyces cerevisiae, UniProt P32377, R74G).
T1 sequence (P32377 1-396 R74G): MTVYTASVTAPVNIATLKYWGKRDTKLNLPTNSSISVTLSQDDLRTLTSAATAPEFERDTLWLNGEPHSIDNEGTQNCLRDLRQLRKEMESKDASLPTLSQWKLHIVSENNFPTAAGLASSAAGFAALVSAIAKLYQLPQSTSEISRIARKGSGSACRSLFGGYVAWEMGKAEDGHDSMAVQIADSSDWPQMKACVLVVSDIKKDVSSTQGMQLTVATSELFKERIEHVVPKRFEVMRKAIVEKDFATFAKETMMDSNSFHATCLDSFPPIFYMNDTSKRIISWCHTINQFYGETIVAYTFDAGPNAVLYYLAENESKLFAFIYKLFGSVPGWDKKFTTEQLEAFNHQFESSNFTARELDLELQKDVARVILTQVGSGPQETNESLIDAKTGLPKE
As to the kind of experiment: In vitro kinetics of MVAP decarboxylation by PMDsc R74G (coupled assay).
Experimental: (§1) This turnover number (kobs) depends upon each mutant's kcat, KM, and KI, yielding a more accurate assessment of the turnover conditions in vivo (Kang et al., 2016).
(§2) In vitro enzyme kinetics of PMDsc were performed as described in the previous study (Kang et al., 2016). Briefly, enzymatic activity was determined by a spectrophotometric assay quantifying ADP product formation via the pyruvate kinase/lactate dehydrogenase coupled enzyme assay. Assay mixtures were prepared in 150 μL total volume containing 50 mM HEPES-KOH (pH 7.5), 10 mM MgCl2, 400 μM phosphoenolpyruvate, 400 μM NADH, 4 mM ATP, and 25 U of pyruvate kinase/lactate dehydrogenase. The reaction was initiated by enzyme after incubating PMDsc substrate and cofactor for fifteen minutes with coupled assay components. The MVAP was varied from 0.100-4.0 mM, and the reaction velocity was determined by monitoring the absorbance at 340 nm in a Spectramax 384plus microplate reader (Molecular Devices, USA). To obtain kinetic data relevant to non-competitive substrate inhibition, MVAP was varied from 0.100-100 mM. Enzyme concentration (ε=56,630 M^−1 cm^−1) was determined spectrophotometrically at 280 nm with a NanoDrop ND-1000 spectrophotometer. kcat and KM were derived for PMDsc mutants by fitting the initial velocities measured from 0.100-4.0 mM MVAP to the Michaelis-Menten equation; KI was determined for select mutants by fitting initial velocities measured from 0.100-100 mM MVAP to the non-competitive substrate inhibition equation. All kinetic analysis was performed in Graphpad Prism, version 7.0a.

For assay [2], the target named is T2, Saccharomyces cerevisiae diphosphomevalonate decarboxylase (PMDsc), wild type, SEQ ID NO: 1 (Saccharomyces cerevisiae, UniProt P32377).
T2 sequence (P32377 1-396): T1 sequence (P32377 1-396 R74G) with G74R
More on the design: His tag; made in house; host or cells: E. coli (Rosetta (DE3) is stated for the mutant plasmids). The note with it: alternative substrate MVAP; Kang et al., 2016; Krepkiy and Miziorko, 2004; cited from earlier work.

Assay [3] concerns the target T3, Saccharomyces cerevisiae diphosphomevalonate decarboxylase (PMDsc, SEQ ID NO: 1) variant Y19H (Saccharomyces cerevisiae, UniProt P32377, Y19H).
T3 construct: His tag; made in house; host or cells: E. coli Rosetta (DE3)
T3 sequence (P32377 1-396 Y19H): T1 sequence (P32377 1-396 R74G) with Y19H, G74R
As to the kind of experiment: In vitro kinetics of MVAP decarboxylation by PMDsc Y19H (coupled assay). The class given is biochemical.

The target of assay [4] is T2, Saccharomyces cerevisiae diphosphomevalonate decarboxylase (PMDsc), wild type, SEQ ID NO: 1. As to the kind of experiment: In vitro kinetics of MVAP decarboxylation by PMDsc WT (pyruvate kinase/lactate dehydrogenase coupled assay).
Experimental: as §1, §2
The target in assay [5] is T4, Saccharomyces cerevisiae diphosphomevalonate decarboxylase (PMDsc, SEQ ID NO: 1) variant M212Q (Saccharomyces cerevisiae, UniProt P32377, M212Q).
T4 construct: His tag; made in house; host or cells: E. coli Rosetta (DE3)
T4 sequence (P32377 1-396 M212Q): T1 sequence (P32377 1-396 R74G) with G74R, M212Q
Nature of the assay: In vitro kinetics of MVAP decarboxylation by PMDsc M212Q (coupled assay). The class given is biochemical. To be noted: MVAP 0.100-4.0 mM, 4 mM ATP, pH 7.5; brackets: standard error.

The mark [6] stands for this setting: MVAP 0.100-4.0 mM, 4 mM ATP, pH 7.5, brackets: standard error.
Setting [7] is: observed turnover number calculated at 100 mM MVAP, noncompetitive substrate inhibition.

Usually kcat stands for the number of substrate molecules converted per active site and unit of time at saturation. By kcat/KM is commonly meant the second-order rate constant that governs catalysis at low substrate concentration. As usually defined, the Km is the substrate concentration at which the rate is half of its maximum. With `C[C@@](O)(CCOP(=O)(O)O)CC(=O)O` [MVAP, mevalonate 5-phosphate], the catalytic constant (kcat) is 0.14 s⁻¹ in assay [1] (setting [6]) and 0.15 s⁻¹ in assay [4] (setting [6]). Moreover, the kobs in assay [1] (setting [7]) was 0.07 s⁻¹; in assay [4] (setting [7]) it was 0.02 s⁻¹. The “kcat (MVAP)” value in assay [2] was 0.14 s⁻¹. Besides, the figures for the kcat/KM in assay [3] (setting [6]) and in assay [5] were 0.78 ± 0.06 mM⁻¹ s⁻¹ and 0.5 ± 0.1 mM⁻¹ s⁻¹, respectively. Also, the “increase of kcat/KM compared to wild type” value in assay [3] (Y19H versus wild type PMDsc, MVAP) was “about 10 fold”. For the same compound, in assay [4] (setting [6]), the Km is 2.3 mM.
